# Experimental data: PubChem BioAssay (NCI)
#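 Results reflect a 48-hour exposure of cells in 96-well plates to compound at five concentrations. TGI is the concentration that stops growth completely.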
# Assays:
# Test in all cases: NCI anticancer screen, dose series, 48 h
# A549 NSCLC = test system: A549 NSCLC
# HL-60(TB) leukemia = test system: HL-60(TB) leukemia
# IGROV1 ovarian = test system: IGROV1 ovarian
# MALME-3M melanoma = test system: MALME-3M melanoma
# NCI-H226 lung = test system: NCI-H226 lung
# SF-268 CNS = test system: SF-268 CNS
# SF-295 CNS = test system: SF-295 CNS
# SK-OV-3 ovarian = test system: SK-OV-3 ovarian
# UO-31 renal = test system: UO-31 renal
# HS 578T breast = test system: HS 578T breast
Structure (SMILES),TGI (A549 NSCLC),TGI (HL-60(TB) leukemia),TGI (IGROV1 ovarian),TGI (MALME-3M melanoma),TGI (NCI-H226 lung),TGI (SF-268 CNS),TGI (SF-295 CNS),TGI (SK-OV-3 ovarian),TGI (UO-31 renal),TGI (HS 578T breast)
O=c1c2c(nc3n1CCC3)sc1c(O)c(Br)ccc12,29.9 µM,33.8 µM,82.5 µM,34.4 µM,73.2 µM,> 100 µM,35 µM,> 100 µM,45.8 µM,
Nc1c(N=Nc2ccc(-c3ccc(N=Nc4c(O)ccc5cc(S(=O)(=O)O)cc(S(=O)(=O)O)c45)cc3)cc2)c(S(=O)(=O)O)cc2cc(S(=O)(=O)O)c(N=Nc3ccccc3)c(O)c12,> 100 µM,> 100 µM,> 100 µM,> 100 µM,> 95 µM,> 100 µM,> 100 µM,> 100 µM,,
Cc1cn([C@H]2[C@@H](CO)C[C@H]2O)c(=O)[nH]c1=O,> 100 µM,> 100 µM,> 100 µM,> 100 µM,> 100 µM,> 100 µM,> 100 µM,,> 100 µM,> 100 µM
COc1ccc(-c2nc(-c3cnccn3)n(C3OC(CO)C(O)C(O)C3O)n2)cc1 (stereo not drawn),> 100 µM,> 100 µM,> 100 µM,,,> 100 µM,> 100 µM,> 100 µM,> 100 µM,
N#CCCC1(CCC#N)CCCCCCC(CCC#N)(CCC#N)C(O)C1O (stereo not drawn),> 100 µM,,> 100 µM,> 100 µM,> 100 µM,> 100 µM,> 100 µM,> 100 µM,> 100 µM,
CNc1ccc(S(=O)Nc2ccccc2)cc1 (stereo not drawn),> 100 µM,> 100 µM,> 100 µM,> 100 µM,> 100 µM,> 100 µM,> 100 µM,,> 100 µM,> 100 µM
CC(=O)O[C@H]1C(=O)N(c2cc3c4ccccc4ccc3c3ccccc23)[C@@H]1c1ccccc1,61.6 µM,,8.27 µM,54.1 µM,40.3 µM,> 100 µM,53.5 µM,35.8 µM,28 µM,25.1 µM
CCN(CC)CCCCC1CCN(CC(=O)N2c3ccccc3NC(=O)CC2C)CC1 (stereo not drawn),> 100 µM,> 100 µM,> 100 µM,> 100 µM,> 100 µM,> 100 µM,> 100 µM,> 100 µM,> 100 µM,
O=C1CSc2nnc(CCCCCCCCc3nnc4n3NC(=O)CS4)n2N1,> 100 µM,> 100 µM,> 100 µM,> 100 µM,> 100 µM,> 100 µM,> 100 µM,> 100 µM,> 100 µM,
C=CCOC(=O)CCCCCCCCCCCCCCCOC(=O)C1=C(CCC[C@@H](C)O[Si](C)(C)C(C)(C)C)NC(=O)N2[C@H](CC3(CC/C=C\[C@H](CC)O[Si](C(C)C)(C(C)C)C(C)C)OCCO3)CC[C@H]12,> 100 µM,,,> 100 µM,> 100 µM,> 100 µM,> 100 µM,> 100 µM,> 100 µM,
CCN(CC)CCN(C)CCc1ccc(Br)cc1,> 100 µM,,> 100 µM,> 100 µM,> 100 µM,> 100 µM,> 100 µM,> 100 µM,> 100 µM,> 100 µM
OC12CCCCCC1(N1CCOCC1)c1ccccc12 (stereo not drawn),> 100 µM,> 100 µM,> 100 µM,> 100 µM,> 100 µM,> 100 µM,> 100 µM,> 100 µM,> 100 µM,
CCOc1ccc(-c2oc(/C=N/NS(=O)(=O)c3ccc(C)cc3)c([N+](=O)[O-])c2-c2ccc(OCC)cc2)cc1,65.6 µM,> 52.9 µM,32.3 µM,37.1 µM,28.4 µM,50.5 µM,38.4 µM,42.7 µM,28.7 µM,
O=C(OCc1ccccc1C1CSCSC1)c1cc(C(=O)OCc2ccccc2C2CSCSC2)c(C(=O)OCc2ccccc2C2CSCSC2)cc1C(=O)OCc1ccccc1C1CSCSC1,> 100 µM,> 100 µM,> 100 µM,> 100 µM,> 100 µM,> 100 µM,> 100 µM,> 100 µM,> 100 µM,
COC(=O)c1c(OC)cc2cc3c(c(O)c2c1C)C(=O)C1(O)C(=O)C=C(OC)C(OC(=O)CC(C)N)=C1C3=O (stereo not drawn),> 100 µM,50.8 µM,69.1 µM,,,> 100 µM,> 100 µM,,> 100 µM,96.6 µM
Cc1cc(S(=O)(=O)O)c(NC(=O)c2oc3cc(O)ccc3c(=O)c2C)cc1Cl,> 100 µM,,> 100 µM,> 100 µM,> 100 µM,> 100 µM,> 100 µM,> 100 µM,> 100 µM,> 100 µM
Cc1cc2occ(-c3ccc(Cl)cc3)c2c(=O)o1,> 100 µM,> 100 µM,> 100 µM,> 100 µM,> 100 µM,> 100 µM,> 100 µM,> 100 µM,> 100 µM,
Cc1ccc2c(c1)CC1(C2=O)[C@H](c2ccccc2)C2C(=O)c3ccc(C)cc3C2[C@H]1c1ccccc1 (stereo partly drawn),> 100 µM,> 100 µM,> 100 µM,> 100 µM,> 100 µM,> 100 µM,> 100 µM,> 100 µM,> 100 µM,
[N-]=[N+]=C(C(=O)C(=[N+]=[N-])C(=O)c1ccccc1)C(=O)c1ccccc1,> 100 µM,> 100 µM,> 100 µM,> 100 µM,,> 100 µM,> 100 µM,,> 100 µM,> 100 µM
Cc1c2cccc-2ccc2c1[nH]c1ccccc12,5.65 µM,9.38 µM,5.77 µM,4.03 µM,3.92 µM,4 µM,5.62 µM,11 µM,3.14 µM,
O=c1oc2ccc(Cl)cc2cc1-c1cn2ccsc2n1,> 100 µM,85.1 µM,> 100 µM,> 100 µM,,> 100 µM,> 100 µM,> 100 µM,> 100 µM,> 100 µM
CC(C)(C)c1ccc(-c2nnc(-c3cc(C#N)cc(-c4nnc(-c5ccc(C(C)(C)C)cc5)o4)c3)o2)cc1,> 100 µM,,> 100 µM,> 100 µM,> 100 µM,> 100 µM,> 100 µM,> 100 µM,> 100 µM,> 100 µM
CC1(C)[C@@H]2CC[C@@]1(C)[C@H](O)[C@@H]2SCc1ccccc1,48.6 µM,54.3 µM,37.4 µM,,39.4 µM,32.6 µM,33 µM,44.9 µM,35.4 µM,30.7 µM
